In patent US6653304B2, “Cannabinoid receptor modulators, their processes of preparation, and use of cannabinoid receptor modulators for treating respiratory and non-respiratory diseases” (Bristol-Myers Squibb Co., priority 2000, dated 2003):
pIC50: −log10 of the molar value.

System: human lung epithelial cell lines H292 and A549
Test: Activation of lung epithelial cells
Format: cell-based
Protocol: (2) Activation of Lung Epithelial Cells
The ability of the cannabinoids to inhibit mucin, chemokine/cytokine production from lung epithelial cells is evaluated with human lung epithelial cell lines H292 and A549. Epithelial cells are cultured overnight in 48 well microtiter plates in complete RMPI […] (200 μl/well) at a density of 2×10^5 cells/ml. The media is removed and replaced with fresh media. Test compounds in 50 μl isotonic buffer are added and incubated for 1 hour at 37° C. Cell activation is triggered by the addition of a stimulatory agent comprising one of EGF, smoke conditioned media, TNF-α or IL-1β. In this assay, the IC50 for Win-55212-2<20 mcM. After a desired period of time (e.g., 24 h) the cell supernatants are removed and assayed for mucin cytokine and chemokines by ELISA. The cannabinoid agonists inhibit mucin and IL-8 production from lung epithelial cells.

For `Cc1c(C(=O)c2cccc3ccccc23)c2cccc3c2n1[C@H](CN1CCOCC1)CO3` [Win-55212-2], the “activity in the lung epithelial cell assay” value was “demonstrated activity” and the pIC50 (stimulated with EGF, smoke conditioned media, TNF-α or IL-1β, mucin, cytokine and chemokines by ELISA) was greater than 4.70.
